Like-named read-outs stand apart in the source and are kept apart here.
How the values were obtained:
[1] = system: K-562 (human chronic myeloid leukaemia); assay: MTT cytotoxicity assay, K-562; format: cell-based; conditions: for IC50: Homo sapiens, K562, MTT, 72 h exposure, three independent experiments, read-out: Cytotoxic activity IC50 (95% CI) K-562; for Selectivity index K-562: ratio of cytotoxicity L929 / K-562
Method in brief: (§1)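 Colorimetric MTT readout, 72 h treatment, triplicate wells, doxorubicin reference. Non-tumoral mouse fibroblast L929 served for selectivity index calculation.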

B16 (murine melanoma) = assay: MTT cytotoxicity assay, B16; format: cell-based; conditions: for IC50: Mus musculus, MTT, 72 h exposure, three independent experiments, read-out: Cytotoxic activity IC50 (95% CI) B16; for Selectivity index B16: ratio of cytotoxicity L929 / B16
Method in brief: as §1

[2] = system: PC3 (human prostate adenocarcinoma); assay: MTT cytotoxicity assay, PC3; format: cell-based; conditions: for IC50: Homo sapiens, MTT, 72 h exposure, three independent experiments, read-out: Cytotoxic activity IC50 (95% CI) PC3; for Selectivity index PC3: ratio of cytotoxicity L929 / PC3
Method in brief: as §1

[3] = system: RAJI (human Burkitt’s lymphoma); assay: MTT cytotoxicity assay, RAJI; format: cell-based; conditions: for IC50: MTT, 72 h exposure, three independent experiments, read-out: Cytotoxic activity IC50 (95% CI) RAJI; for Selectivity index RAJI: ratio of cytotoxicity L929 / RAJI
Method in brief: as §1

[4] = system: HL60 (human pro-myelocytic leukaemia); assay: MTT cytotoxicity assay, HL60; format: cell-based; conditions: for IC50: MTT, 72 h exposure, three independent experiments, read-out: Cytotoxic activity IC50 (95% CI) HL60; for Selectivity index HL60: ratio of cytotoxicity L929 / HL60
Method in brief: as §1

[5] = system: SNB-19 (human astrocytoma); assay: MTT cytotoxicity assay, SNB-19; format: cell-based; conditions: for IC50: Homo sapiens, SNB-19, MTT, 72 h exposure, three independent experiments, read-out: Cytotoxic activity IC50 (95% CI) SNB-19; for Selectivity index SNB-19: ratio of cytotoxicity L929 / SNB-19
Method in brief: as §1

[6] = system: KG1 (human acute myeloid leukaemia); assay: MTT cytotoxicity assay, KG1; format: cell-based; conditions: for IC50: Homo sapiens, MTT, 72 h exposure, three independent experiments, read-out: Cytotoxic activity IC50 (95% CI) KG1; for Selectivity index KG1: ratio of cytotoxicity L929 / KG1
Method in brief: as §1

[7] = system: L929 cells (non-tumoral mouse fibroblast); assay: MTT cytotoxicity assay, L929 control line; format: cell-based; conditions: 72 h exposure, read-out: Cytotoxic activity IC50 (95% CI) L929
Method in brief: as §1

[8] = MTT cytotoxicity assay, L929 control line; format: cell-based, mouse; conditions: mouse, L929 fibroblast cells (non-tumoral control line), 72 h exposure, read-out: Cytotoxic activity IC50 (95% CI) L929
Method in brief: as §1

[9] = system: A549 (human lung carcinoma); assay: MTT cytotoxicity assay, A549; format: cell-based; conditions: for IC50: Homo sapiens, A549, MTT, 72 h exposure, three independent experiments, read-out: Cytotoxic activity IC50 (95% CI) A549; for Selectivity index A549: ratio of cytotoxicity L929 / A549
Method in brief: as §1

[10] = system: HCT-116 (human colorectal carcinoma); assay: MTT cytotoxicity assay, HCT-116; format: cell-based; conditions: for IC50: Homo sapiens, HCT-116, 72 h, MTT, 72 h exposure, three independent experiments, read-out: Cytotoxic activity IC50 (95% CI) HCT-116; for Selectivity index HCT-116: ratio of cytotoxicity L929 / HCT-116
Method in brief: as §1

[11] = system: PC3 (human prostate adenocarcinoma); set-up: method as in PMID 34778772; conditions: ratio L929 / PC3; * data previously described; cited from earlier work
[12] = system: HCT-116 (human colorectal carcinoma); set-up: method as in PMID 34778772; conditions: ratio L929 / HCT-116; * data previously described; cited from earlier work
[13] = system: HL60 (human pro-myelocytic leukaemia); set-up: method as in PMID 34778772; conditions: ratio L929 / HL60; * data previously described; cited from earlier work
[14] = system: SNB-19 (human astrocytoma); set-up: method as in PMID 34778772; conditions: ratio L929 / SNB-19; * data previously described; cited from earlier work

SMILES	IC50 [1] [µM]	Selectivity index K-562 [1]	IC50 (B16 (murine melanoma)) [µM]	Selectivity index B16 (B16 (murine melanoma))	IC50 [2] [µM]	Selectivity index PC3 [2]	IC50 ([3]; Homo sapiens, Raji, 72 h) [µM]	Selectivity index RAJI [3]	IC50 ([4]; Homo sapiens, HL-60, 72 h) [µM]	Selectivity index HL60 [4]	IC50 [5] [µM]	Selectivity index SNB-19 [5]	IC50 [6] [µM]	Selectivity index KG1 [6]	IC50 at 72 h [8] [µM]	IC50 [9] [µM]	Selectivity index A549 [9]	IC50 [10] [µM]	Selectivity index HCT-116 [10]	also measured
C#CCNC1=CC(=O)c2c(O)cccc2C1=O [Compound 18b, 5-hydroxy-2-(prop-2-yn-1-ylamino)naphthalene-1,4-dione]	25	1.0	8.65	2.8	> 100	0.2	23.2	1.0	> 100	0.2	15	1.6	> 100	0.2	24	15	1.6	–	–	IC50 [7]: 23.9 µM
O=C1C(=O)c2ccccc2C2=C1CC(Cn1cc(CNC3=CC(=O)c4cc5ccccc5cc4C3=O)nn1)O2 (stereo not shown) [Compound 20e, 2-((4-(((1,4-dioxo-1,4-dihydroanthracen-2-yl)amino)methyl)-1H-1,2,3-triazol-1-yl)methyl)-2,3-dihydronaphtho[1,2-b]furan-4,5-dione]	7.58	2.1	9.57	1.7	17.6	0.9	5.26	3.0	1.6	10.1	7.87	2.0	37	0.4	15.9	12.7	1.3	7.2	2.2	IC50 [4]: 1.57 µM; IC50 [7]: 15.9 µM
COc1cccc2c1C(=O)c1c(O)c3c(c(O)c1C2=O)C[C@@](O)(C(=O)CO)C[C@@H]3O[C@H]1C[C@H](N)[C@H](O)[C@H](C)O1 [DOXO, doxorubicin, reference compound]	0.91	1.9	0.06	30.2	–	–	2.33	0.7	–	–	–	–	0.38	4.5	–	0.57	3.0	–	–	Selectivity index PC3 [11]: 2.3 *; Selectivity index HCT-116 [12]: 8.2 *; Selectivity index HL60 [13]: 86.0 *; Selectivity index SNB-19 [14]: 1.4 *
COc1cccc2c1C(=O)C(NCc1cn(CC3CC4=C(OC3(C)C)c3ccccc3C(=O)C4=O)nn1)=CC2=O (stereo not shown) [Compound 21c, 3-((4-(((8-methoxy-1,4-dioxo-1,4-dihydronaphthalen-2-yl)amino)methyl)-1H-1,2,3-triazol-1-yl)methyl)-2,2-dimethyl-3,4-dihydro-2H-benzo[h]chromene-5,6-dione]	5.3	1.1	4.57	1.2	5.09	1.1	1.22	4.6	2.28	2.5	4.92	1.1	1.32	4.2	5.6	4.78	1.2	4.85	1.2	–
COc1cccc2c1C(=O)C(NCc1cn(C3C4=C(OC3(C)C)c3ccccc3C(=O)C4=O)nn1)=CC2=O (stereo not shown) [Compound 19c, 3-(4-(((8-methoxy-1,4-dioxo-1,4-dihydronaphthalen-2-yl)amino)methyl)-1H-1,2,3-triazol-1-yl)-2,2-dimethyl-2,3-dihydronaphtho[1,2-b]furan-4,5-dione]	3.06	3.0	1.74	5.3	3.5	2.6	0.9	9.9	1.07	8.6	8.19	1.1	4.77	1.9	9.17	3.06	3.0	1.6	5.7	IC50 [3]: 0.93 µM
CC1(C)OC2=C(CC1Cn1cc(CNC3=CC(=O)c4cc5ccccc5cc4C3=O)nn1)C(=O)C(=O)c1ccccc12 (stereo not shown) [Compound 21e, 3-((4-(((1,4-dioxo-1,4-dihydroanthracen-2-yl)amino)methyl)-1H-1,2,3-triazol-1-yl)methyl)-2,2-dimethyl-3,4-dihydro-2H-benzo[h]chromene-5,6-dione]	3.69	0.5	2.86	0.6	2.87	0.6	6.83	0.3	0.5	6.6	1.33	1.3	4.21	0.4	1.71	0.88	1.9	1.74	1.0	IC50 [4]: 0.26 µM
C#CCNC1=CC(=O)c2c(I)cccc2C1=O [Compound 18a, 5-iodo-2-(prop-2-yn-1-ylamino)naphthalene-1,4-dione]	> 100	–	48.5	2.1	> 100	–	> 100	–	38.3	2.6	> 100	–	> 100	–	> 100	> 100	–	> 100	–	–

— article PMC10005332, “It Takes Two to Tango, Part II: Synthesis of A-Ring Functionalised Quinones Containing Two Redox-Active Centres with Antitumour Activities” (Molecules, 2023)
